One compound from paper PMC10632520, “Structural flexibility of apolipoprotein E-derived arginine-rich peptides improves their cell penetration capability” (Scientific Reports, 2023) can be followed below.

Residues, ends and D or L forms follow the SMILES beside them.

The series is described as follows: Channel current (electrophysiological) analysis of peptide-induced pores. The settings on record: planar DOPC bilayer, 10 µM peptide, 100 mV; pH 7.0. The class given is physicochemical. On the procedure: Electrophysiological measurements were performed using a MECA 16 TC chip with an Orbit 16 TC device (Nanion Technologies GmbH, Munich, Germany) according to the manufacturer’s instructions. The MECA 16 TC chamber was filled with 200 µL of buffer solution (150 mM KCl, 10 mM MOPS, pH 7.0); 1 µL of DOPC (lipid/n-decan, 10 mg/mL) solution was added to the chamber, and planar lipid bilayers were automatically prepared using the Orbit 16TC stirrer. The peptide was then dissolved in the chamber at 10 µM (a lipid/peptide molar ratio of ~ 6 in the chamber system), and 100 mV of voltage was applied. The channel current was monitored using the Orbit 16 TC Elements Data Reader 4 v.1.0.22. The channel current signals were detected using a 4-kHz low-pass filter at a sampling frequency of 20 kHz. Analysis of the channel signals was performed using pCLAMP ver. 10.7 (Molecular Devices, CA, USA). The data obtained in this measurement are n (number of current signals): 2081 > n > 311; N (number of experiments) > 3.

As to `CC(=O)N[C@@H](CC(C)C)C(=O)N[C@@H](CCCNC(=N)N)C(=O)N[C@@H](CCCCN)C(=O)N[C@@H](CC(C)C)C(=O)N[C@@H](CCCNC(=N)N)C(=O)N[C@@H](CCCCN)C(=O)N[C@@H](CCCNC(=N)N)C(=O)N[C@@H](CC(C)C)C(=O)N[C@@H](CC(C)C)C(=O)N[C@@H](CCCNC(=N)N)C(=O)N[C@@H](CC(C)C)C(=O)N[C@@H](Cc1c[nH]c2ccccc12)C(=O)N[C@@H](CCCCN)C(=O)N[C@@H](CC(C)C)C(=O)N[C@@H](CCCNC(=N)N)C(=O)N[C@@H](CCCCN)C(=O)N[C@@H](CCCNC(=N)N)C(N)=O` [A2-17] (Ac-LRKLRKRLLRLWKLRKR-NH2), the “charge flux accompanied by spike current signal” value was “much greater for A2-17 than that for StpA2-17 or StchA2-17”.
